Measured values published in patent US8053415B2, “Compounds having RD targeting motifs” (Washington University in St. Louis, priority 2005, dated 2011).
Where a SMILES comes first, the peptide text is derived from it.

What was measured:
[1] = biological target: integrin αvβ3 protein (purified ABI) (Homo sapiens, UniProt P05106+P06756); experiment: Receptor binding assay with 125I-echistatin (Example 3); conditions: Table 4, 125I-echistatin tracer
Description: A 96-well filtration plate was blocked with 0.1% polyethylenimine blocking solution by incubation overnight at 4° C. ^125I-Echistatin (50 nmol/L) was added to the binding buffer (50 mM Tris-HCl, pH 7.4, 100 mM NaCl, 2 mM CaCl2, 1 mM MgCl2, 1 mM MnCl2, 0.1% BSA) with integrin αvβ3 protein (50 ng/well in 96-well filtration plate) and ligands. The concentration range of ligand was between 0.01 and 100 μM. The mixture was incubated for 2 h by shaking at room temperature. Each well was washed three times with 0.25 mL of ice-cold binding buffer and dried. The filters were removed using a punch apparatus and counted in a gamma counter.

U87 cells = experiment: Cell uptake and internalization (Example 3); format: cell-based, human; conditions: within an hour of incubation
Description: (§1) The ABI-positive cells were incubated with cypate or cypate-peptide conjugates at 37° C. for different time points. A549 cells were grown as detailed above. The human glioblastoma cell line, U87, and the human embryonic kidney cell line, HEK, were purchased from ATTC. U87 and HEK cells were maintained in minimum essential medium (MEM) with 2 mM L-glutamine and Earle's BSS adjusted to contain 1.5 g/L sodium bicarbonate, 0.1 mM nonessential amino acids, and 1.0 mM sodium pyruvate, with 10% fetal calf serum, 100 units/mL penicillin, and 100 units/mL streptomycin. Cells were grown on Lab-Tek slides. The medium was replaced and cells were incubated for various times up to 4 h at 37° C. in the presence of 1 μM of the dye conjugated peptides. For fluorescence microscopy, cells were visualized with an Olympus BX61W1 microscope using 775/50 excitation, 845/55 emission. For subcellular localization studies, 25 nM mitotracker green or 50 nM lysotracker red from Molecular Probes (Eugene, Oreg.) was added during the last 15 min or 60 min of incubation, respectively. […] Relative fluorescence was determined for five different areas of each experimental condition using the Slidebook software, and the results were averaged. The average relative fluorescence for each condition was normalized to cells treated with Cyp-GRD peptide.

HEK cells = experiment: Cell uptake and internalization (Example 3); format: cell-based, human; conditions: within an hour of incubation
Description: as §1

A549 tumor = experiment: In vivo fluorescence optical imaging and ex vivo organ distribution in A549 tumor-bearing nude mice; conditions: for uptake / retention in A549 tumor: 0.3 μmol per kg via lateral tail vein, fluorescence imaging
Description: All in vivo studies were performed in compliance with the Washington University in St Louis Animal Study Committee's requirements for the care and use of laboratory animals in research. Nude mice (18-22 g) were anesthetized with xylazine/ketamine cocktail via intraperitoneal injection and placed in a supine position. The mice were injected subcutaneously with A549 cells (1×10^6) in the lower back of the mice. Tumor masses were palpable at 5-7 days post implant, which reached 5 mm in 10-15 days. Prior to injection of the probe, the mice were anesthetized as described above. A 29-gauge needle was used to inject the probes into the mouse via the lateral tail vein. The molecular probe (100 μL) was injected via the lateral tail vein at 0.3 μmol per kg of body weight. […] [SEQ ID NO:1] were constituted in a vial, and doses of 0.3 μmol per kg of body weight were injected into the A549 tumor-bearing mice.
A non-invasive in vivo continuous wave fluorescence imaging apparatus was used to visualize the distribution and preferential tissue uptake of the cypate-peptide molecular beacons in the nude mice (Achilefu (2004) Technol. Cancer Res. Treat. 3:393-409, incorporated herein by reference). Light from two laser diodes of nominal wavelength 780 nm and nominal power of 50 mW was launched into a fiber optic bundle. Two laser diodes were used to produce as much uniform illumination of the whole animal or organ parts as possible. The nominal 50 mW of incident power was reduced to about 44 mW at the output of the fiber optic bundle. A de-focusing lens in position after the bundle expanded the beam such that nearly the whole animal was illuminated. A Photometrics CCD camera (16 bit, 1024×1024 pixel, back illuminated, thermoelectric Peltier cooled with forced air) was used to capture the emitted photons. An interference filter (830 nm) was mounted in front of the CCD camera input lens such that only emitted fluorescent light from the contrast agent was imaged. Real-time acquisition, display and data processing software (WinView/32) was used to obtain the optical image. The samples were dissolved in 20% aqueous DMSO and animals were injected with doses of 0.3 μmol/kg body weight via the lateral tail vein. Injected volumes were 100 μL for each mouse. Data analysis consisted of subtracting (pixel by pixel) the pre-injection image from the post injection images, and displaying the false color results. Integration of the relative fluorescence intensities of tumor vs. surrounding tissues indicated the extent of selective uptake of the contrast agent. At the completion of the study, the mice were euthanized and some organ parts were excised and rinsed with water. The tissues were placed under the CCD camera and the fluorescence emission from each organ was measured after excitation with the 780 nm laser sources. Tissue parts, instead of whole organs, were used to minimize problems associated with depth-dependent non-linear fluorescence emission. A statistical program in the WinView package was used to estimate the mean fluorescence intensity per organ part.
In vivo optical imaging studies using the cypate-peptide optical probes were performed and analyzed as described above in Example 1. […]

VSMC wild-type cells = experiment: Internalization in wild-type vascular smooth muscle cells; format: cell-based, mice; conditions: 1 μM, 1 hr, 37° C.
Description: Having shown that cypate-GRD preferentially binds to β3 integrin in ABI-positive cells, it was hypothesized that it would not internalize in β3 knockout cells. Vascular smooth muscle cells (VSMCs) from the aortas of β3^−/−apoE^−/− and β3^+/+apoE^−/− mice were provided by Dr. Clay F. Semenkovich (Washington University Medical School in St. Louis, Mo.). VSMCs were maintained at 37° C. in humidified atmosphere containing 5% CO2 in Dulbecco's modified Eagle's medium (DMEM) containing 10% fetal bovine serum, 4 mmol/L L-glutamine, 1 mM sodium pyruvate, 100 U/ml penicillin, 0.25 μg/ml amphotericin, 100 μg/ml streptomycin. The internalization of cypate-GRD and cyclic cypate-RGD were compared in β3 knockout and wild-type VSMC cells, essentially as described above.

A549 cells = experiment: Cellular internalization and blocking studies by fluorescence microscopy (Example 1); conditions: 37° C.; for translocation into the nucleus: A549 cells
Description: Cells were grown on LabTek microscope slides, as described above. The medium was removed and cells were incubated at 4° C. or 37° C. in PBS containing 1 μM of one of the peptide conjugates for 30 min. […] The cells were further incubated at 37° C. for 4 h and visualized with a Zeiss LSM510 system using a 633 laser and an LP650 filter.
For antibody blocking studies, cells were preincubated for 30 min at room temperature with 10 μg/ml function-specific monoclonal antibodies anti-αv or anti-β3 integrin subunits (Molecular Probes; Eugene Oreg.) before addition of 1 μM of a cypate-peptide conjugate. For nuclear staining, 0.1 μM TOPO-1 (Molecular Probes) was mixed with mounting medium and applied to the cells. All cells were visualized on an Olympus FV1000 microscope equipped with the appropriate bandwidth filters for cypate conjugates (or cypate-3 conjugates) and TROPO-1.

Sequence of integrin αvβ3 protein (purified ABI) (P06756 31-889 limits assumed): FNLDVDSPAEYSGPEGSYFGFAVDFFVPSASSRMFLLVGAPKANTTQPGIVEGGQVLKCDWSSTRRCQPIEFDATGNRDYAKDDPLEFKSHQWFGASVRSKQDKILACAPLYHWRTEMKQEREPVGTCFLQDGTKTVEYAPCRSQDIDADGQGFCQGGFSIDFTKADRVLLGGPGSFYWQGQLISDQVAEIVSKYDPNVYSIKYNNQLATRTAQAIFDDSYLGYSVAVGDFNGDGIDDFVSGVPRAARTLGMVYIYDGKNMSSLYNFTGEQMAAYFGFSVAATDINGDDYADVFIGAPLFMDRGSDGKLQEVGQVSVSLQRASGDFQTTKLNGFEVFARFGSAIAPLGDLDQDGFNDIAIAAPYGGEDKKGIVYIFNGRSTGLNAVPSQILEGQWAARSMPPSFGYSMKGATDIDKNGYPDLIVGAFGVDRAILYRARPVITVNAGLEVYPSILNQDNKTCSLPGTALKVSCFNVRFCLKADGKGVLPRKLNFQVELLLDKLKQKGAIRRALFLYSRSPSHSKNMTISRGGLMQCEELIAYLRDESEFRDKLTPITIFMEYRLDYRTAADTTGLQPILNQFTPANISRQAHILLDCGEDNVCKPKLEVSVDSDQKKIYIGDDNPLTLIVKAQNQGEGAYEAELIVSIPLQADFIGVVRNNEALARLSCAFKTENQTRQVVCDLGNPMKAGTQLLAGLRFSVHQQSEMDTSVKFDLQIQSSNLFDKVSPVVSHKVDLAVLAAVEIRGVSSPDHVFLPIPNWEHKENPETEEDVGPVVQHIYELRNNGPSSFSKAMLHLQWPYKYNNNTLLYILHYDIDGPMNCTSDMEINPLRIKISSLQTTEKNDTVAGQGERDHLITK
Sequence of integrin αvβ3 protein (purified ABI) (P06756 891-1048 partner limits assumed): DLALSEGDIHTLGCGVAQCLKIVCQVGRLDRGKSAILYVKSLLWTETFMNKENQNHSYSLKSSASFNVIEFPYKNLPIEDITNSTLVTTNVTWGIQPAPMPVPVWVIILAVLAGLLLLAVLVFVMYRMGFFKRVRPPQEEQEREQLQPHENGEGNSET
Sequence of integrin αvβ3 protein (purified ABI) (P05106 27-788): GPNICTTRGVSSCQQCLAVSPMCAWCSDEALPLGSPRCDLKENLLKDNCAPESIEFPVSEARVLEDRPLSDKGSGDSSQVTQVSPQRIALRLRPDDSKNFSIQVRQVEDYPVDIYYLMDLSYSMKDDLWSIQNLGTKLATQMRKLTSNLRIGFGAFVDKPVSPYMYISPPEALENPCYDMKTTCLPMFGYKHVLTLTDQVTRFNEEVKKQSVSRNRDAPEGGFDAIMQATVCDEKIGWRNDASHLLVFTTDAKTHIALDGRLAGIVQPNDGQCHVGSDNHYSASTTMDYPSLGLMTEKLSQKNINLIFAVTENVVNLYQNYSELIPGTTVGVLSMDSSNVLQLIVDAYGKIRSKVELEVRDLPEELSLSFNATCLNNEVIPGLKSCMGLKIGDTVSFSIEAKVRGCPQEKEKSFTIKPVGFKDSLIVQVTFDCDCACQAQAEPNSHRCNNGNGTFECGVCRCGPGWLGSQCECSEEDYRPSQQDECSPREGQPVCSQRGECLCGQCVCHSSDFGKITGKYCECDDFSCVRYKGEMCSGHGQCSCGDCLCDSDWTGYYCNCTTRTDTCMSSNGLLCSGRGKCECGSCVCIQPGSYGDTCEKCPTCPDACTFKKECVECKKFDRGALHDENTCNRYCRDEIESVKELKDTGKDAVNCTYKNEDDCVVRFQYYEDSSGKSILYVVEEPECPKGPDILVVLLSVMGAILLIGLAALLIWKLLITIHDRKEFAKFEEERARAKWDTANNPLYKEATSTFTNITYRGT

What does the source list for `CC1(C)C(/C=C/C=C/C=C/C=C2/N(CCC(=O)NCC(=O)N[C@@H](CCCNC(=N)N)C(=O)N[C@@H](CC(=O)O)C(=O)N[C@@H](CO)C(=O)N3CCC[C@H]3C(=O)N[C@@H](CCCCN)C(=O)O)c3ccc4ccccc4c3C2(C)C)=[N+](CCC(=O)O)c2ccc3ccccc3c21` [Cyp-GRD, Cypate-GRDSPK] (HELM PEPTIDE1{[CC1(C)C(/C=C/C=C/C=C/C=C2/N(CCC(=O)[*:2])c3ccc4ccccc4c3C2(C)C)=[N+](CCC(=O)O)c2ccc3ccccc3c21].G.R.D.S.P.K}$$$$V2.0)?
IC50 [1]: > 100 µM; internalization in U87 cells (U87 cells): internalization; internalization in HEK cells (HEK cells): internalization; clearance from blood (A549 tumor; 0.3 μmol per kg i.v.): slow clearance; time post injection after which selective tumor uptake became obvious (A549 tumor; 0.3 μmol per kg i.v.): > 8 h; time the whole animal fluoresced after injection before clearance began (A549 tumor; 0.3 μmol per kg i.v.): up to 2 h; uptake / retention in A549 tumor (A549 tumor): preferential uptake of the probes in the tumor; uptake / retention in A549 tumor (A549 tumor; listed as cypate-GRD): preferentially localized; accumulation / retention in nontarget tissues (A549 tumor; 24 h post injection): much lower; tumor uptake compared among the cypate-peptide conjugates (A549 tumor; 24 h post injection): higher uptake in the tumor tissue; internalization in VSMC wild-type cells (VSMC wild-type cells): internalized; internalization in A549 cells (A549 cells; 1 μM): internalized; translocation into the nucleus (A549 cells): did not translocate to the nucleus; translocation into the nucleus (A549 cells; listed as cypate-GRD): not localized in the nucleus
